Experimental findings from patent US20050266498A1, “Method for screening biomolecule activity regulator” (priority 1999, published 2005) are described below.

Where two headings read alike, the source gives them in different places. Ends that are not written are not given here.

Assay [1] deals with T1, MBP-NS34a (Hepatitis C virus genotype 1b, UniProt P26662).
T1 construct: (including 979th to 1710th amino acids); made in house; host or cells: Escherichia coli XL2-Blue
Kind of assay: Phage ELISA: inhibition of binding of phage peptide and MBP-NS34a by library compounds. Conditions: for effect on binding of various phages to NS34a (figure legend): FIG. 3: clones other than phage peptide K13, FIG. 4: any clone; for inhibition of the binding of the MBP-NS34a and the phage peptide: compound serially diluted, OD 405 nm (FIG. 3, FIG. 4). Also on record: species or system human hepatitis C virus. As for the experimental part:
A binding inhibitor was screened by using the above phage ELISA system. As peptides used for screening, the phage peptides whose protease inhibitory activity was confirmed by using the synthetic peptides were prepared in an amount required for screening according to the method of Example 2 <3>. Each well of a 96-well microtiter plate was coated by using 50 μl of the MBP-NS34a protein solution prepared at 10 μg/ml. The plate was blocked by using 100 μl of 0.5% BSA solution prepared with 10 mM NaHCO3 and rinsed once with 200 μl of TBS buffer for each well. A mixed solution of a compound in a chemical library (synthesized in our company) diluted to an appropriate concentration and each phage prepared as described above was prepared, and the mixture was added to each well coated with the MBP-NS34a protein in an amount of 100 μl and incubated overnight at 4° C. Each well was washed with 200 μl of TBS buffer four times. Then, 50 μl of horseradish peroxidase (HRP)-conjugated sheep anti-M13 phage diluted 2000 times with 5% skim milk was introduced into each well and incubated at room temperature for 1 hour.
Each well was washed with 200 μl of TBS containing 0.5% Tween-20, five times. Then, 100 μl of ABTS solution was added thereto and further incubated at room temperature. The optical density at 405 nm was measured by using a 96-well plate reader (BIO-RAD). There was selected Compound HCP1271 (Compound 5 described in Japanese Patent Laid-Open (KOKAI) No. 2000-7645), in the presence of which the optical density by binding of the MBP-NS34a and the phage peptide was lower than the optical density observed in the absence of the compound. Further, this inhibitory compound was serially diluted and its influence on the binding of 5 kinds of other phage peptides, which inhibited the NS3 protease activity, was similarly determined by the phage ELISA method. […] Further, since a compound HCP1231 similar to HCP1271, was retrieved by the search of the chemical library, its NS3 protease activity inhibitory ability and influence on the binding of the phage peptide and the NS3 protease were examined. […] That is, it was shown that the compound obtained from screening of the inhibitor for binding of the phage peptide and the protease protein could inhibit the protease activity very well.
A general note: An ELISA detects its analyte on a solid surface through an enzyme-linked reagent.

Assay [2] addresses T2, NS3 protease (MBP-NS34a) (Hepatitis C virus genotype 1b, UniProt P26662).
T2 construct: (including 979th to 1710th amino acids); made in house; host or cells: Escherichia coli XL2-Blue
Kind of assay: NS3 protease inhibitory activity test using substrate cleavage reaction as index. The assay is classed as biochemical, human hepatitis C virus. Here is the method:
An NS3 protease cleavage sequence between NS5a and NS5b in the HCV polypeptide was synthesized. The protease inhibitory ability of each of the synthetic peptides was examined according to the method of Kakiuchi et al., in which a synthetic substrate having an amino terminus labeled with a dansyl group was reacted in the presence of a protease and a cleavage degree is measured by reverse phase HPLC (Biochem. Diophys. Res. Commun., 210, 1059, 1995). 1 μg of the purified MBP-NS34a and a reaction mixture (50 mM Tris-HCl (pH 7.5), 30 mM NaCl, 5 MM MgCl2 and 10 mM DTT) containing an evaluation sample prepared at an appropriate concentration were incubated at 25° C. for 15 minutes. To the solution, the synthesized substrate was added at a final concentration of 50 μM, and the mixture was allowed to react at 37° C. for 1 to 3 hours. Subsequently, the enzymatic reaction was stopped by adding a reaction-stopping solution (20% acetonitrile, 0.1% TFA) in a volume 9 times as much as the reaction volume. Then, the cleavaged peak of the synthesized substrate was detected (excited at 340 nm and measured at 510 nm) by a reverse phase column (YMC-AM-302) to calculate the cleavage rate when the inhibitor was added. Further, a value obtained by dividing this cleavage rate when the inhibitor was added by the cleavage rate when no inhibitor was added, was subtracted from 1 and then multiplied by 100. The obtained value was used as the inhibition rate (%) of the evaluated drug. In the above method, the peptide concentration inhibiting 50% of the protease activity (IC50) was calculated (Table 2).

In assay [3] the target is T1, MBP-NS34a. Kind of assay: Phage ELISA: inhibition of binding of phage peptide and MBP-NS34a by NS4a peptide 4A18-40. Conditions: 4A18-40 peptide in 10-fold and 20-fold molar excess (FIG. 2). The arrangement: species or system human hepatitis C virus. The source says:
A possibility that an action site of each phage peptide clone obtained as described above and that of the NS4a peptide derived from virus known to be activated by the binding to the NS3 protein were identical or overlapped was examined. A partial peptide of the NS4a peptide composed of the 18th to 40th residues from the amino terminus (referred to as 4A18-40 peptide) is known as a minimal region required to enhance the NS3 protease activity (Tanji et al., J. Virol., 69, 4017-4026, 1995). Accordingly, an influence on the binding of each phage peptide and the MBP-NS34a protein was analyzed by the phage ELISA method using a chemically synthesized 4A18-40 peptide ([…], SEQ ID NO; 19). 10 μg/ml of the MBP-NS34a protein to which the 4A18-40 peptide was added in an amount of 10 or 20 times in excess in a molar ratio was immobilized on each well of a 96-well microtiter plate. The plate was blocked by using 100 μl of 0.5% BSA solution prepared with 10 mM NaHCO3, and rinsed once with 200 μl of TBS buffer. […]
Each well was washed with 200 μl of TBS containing 0.5% Tween 20 five times. […] The optical density at 405 nm was measured by a 96-well plate reader (BIO-RAD). The optical density due to binding of the MBP-NS34a and the phage peptide observed in the presence of the NS4a peptide was measured.

T2 sequence (P26662 979-1710): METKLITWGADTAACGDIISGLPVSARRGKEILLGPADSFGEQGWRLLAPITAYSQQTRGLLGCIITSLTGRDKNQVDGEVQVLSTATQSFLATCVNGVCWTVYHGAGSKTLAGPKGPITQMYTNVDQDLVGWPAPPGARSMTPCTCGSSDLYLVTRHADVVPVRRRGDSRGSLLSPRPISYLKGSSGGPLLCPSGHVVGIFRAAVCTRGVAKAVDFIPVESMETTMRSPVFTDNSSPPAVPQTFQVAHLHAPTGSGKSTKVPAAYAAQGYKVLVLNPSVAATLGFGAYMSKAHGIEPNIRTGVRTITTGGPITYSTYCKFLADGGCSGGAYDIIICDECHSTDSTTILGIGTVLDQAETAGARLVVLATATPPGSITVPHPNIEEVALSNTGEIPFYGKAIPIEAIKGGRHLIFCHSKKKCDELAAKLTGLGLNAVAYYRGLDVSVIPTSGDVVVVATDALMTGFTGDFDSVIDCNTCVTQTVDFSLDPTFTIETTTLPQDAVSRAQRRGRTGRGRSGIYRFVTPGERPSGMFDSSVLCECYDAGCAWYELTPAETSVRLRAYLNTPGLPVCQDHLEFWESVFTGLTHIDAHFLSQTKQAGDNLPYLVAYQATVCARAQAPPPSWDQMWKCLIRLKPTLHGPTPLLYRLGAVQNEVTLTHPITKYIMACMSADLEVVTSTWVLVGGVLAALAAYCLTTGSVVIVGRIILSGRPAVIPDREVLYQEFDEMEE
T1 sequence (P26662 979-1710): as above

Regarding `CCCCCCNC(=O)c1cc(Cl)ccc1NS(=O)(=O)c1ccc(Cl)cc1` [HCP1231], in assay [1], the “effect on binding of various phages to NS34a (figure legend)” value is on record as “Binding of any clone was not inhibited”; the “inhibition of the binding of the MBP-NS34a and the phage peptide” value is given as “scarcely inhibited the binding”. For the same compound, the “NS3 protease activity inhibitory ability (in words)” value in assay [2] is “very weak protease activity inhibitory activity”.

Usually IC50 stands for the concentration that inhibits the measured activity by half. For `O=C(Nc1ccc(Oc2c(Cl)cc(Cl)cc2Cl)cc1)c1cc(Cl)ccc1NS(=O)(=O)c1ccc2ccccc2c1` [HCP1271], in assay [1], the “effect on binding of various phages to NS34a (figure legend)” value is recorded as “inhibited in a concentration-dependent manner”; the “inhibition of the binding of the MBP-NS34a and the phage peptide” value is on record as “concentration-dependently inhibited the binding”. In addition, the IC50 in assay [2] (method of Example 3 <1>, read-out: NS3 protease activity IC50 value) is 2.2 µM.

IWHFSFMWI [Clone K1, IWHFSFMWI] displayed an IC50 in assay [2] of 15 µM.

Consider “LTTGSVVIVGRIILSGRPAVVPD [4A18-40 peptide]”, for which the “inhibition of binding of phage clone K13 to the MBP-NS34a protein” value in assay [3] is “increasingly inhibited”; in assay [3] (listed as NS4a peptide) it was “inhibited the binding in a concentration-dependent manner”.

Consider WVFFWLSRP [Clone J95, WVFFWLSRP], for which the midpoint of inhibition in assay [2], the IC50, lay at 15 µM.
